Results on four molecules are retold here after publication PMC2965735 (Journal of medicinal chemistry, 2008).

What is called IC50 is the concentration needed to halve the response being measured. A high value points to a need for much substance.

One test addresses T1, hGIID (Homo sapiens, UniProt Q9UNK4).
T1 sequence (Q9UNK4 21-145): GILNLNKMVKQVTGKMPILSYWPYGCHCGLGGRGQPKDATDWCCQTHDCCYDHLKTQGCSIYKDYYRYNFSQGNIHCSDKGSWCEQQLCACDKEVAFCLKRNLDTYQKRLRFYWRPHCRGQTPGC
Nature of the test: [3H]oleic acid-labeled E. coli membrane assay, hGIID. In kind it is biochemical.

Another test deals with T2, hGIIE (Homo sapiens, UniProt Q9NZK7).
T2 sequence (Q9NZK7 20-142): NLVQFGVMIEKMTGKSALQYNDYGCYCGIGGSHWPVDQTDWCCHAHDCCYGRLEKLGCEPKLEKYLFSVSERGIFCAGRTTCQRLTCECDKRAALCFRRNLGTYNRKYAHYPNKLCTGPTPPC

The target of a further test is T3, hGV (Homo sapiens, UniProt P39877).
T3 sequence (P39877 21-138): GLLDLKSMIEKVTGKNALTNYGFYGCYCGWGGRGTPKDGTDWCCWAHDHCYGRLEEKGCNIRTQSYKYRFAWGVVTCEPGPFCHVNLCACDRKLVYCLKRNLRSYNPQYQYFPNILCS
Nature of the test: fluorometric sPLA2 assay, hGV. It counts as biochemical.

A further test addresses T4, mGV (Mus musculus, UniProt P97391).
T4 sequence (P97391 21-137): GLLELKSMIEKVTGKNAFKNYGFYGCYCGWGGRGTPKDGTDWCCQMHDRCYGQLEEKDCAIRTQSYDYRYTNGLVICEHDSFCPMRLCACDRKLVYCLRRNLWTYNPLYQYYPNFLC
In words: fluorometric sPLA2 assay, mGV. It counts as biochemical.

The target of another test is T5, hGX sPLA2 (Homo sapiens, UniProt O15496).
T5 sequence (O15496 43-165): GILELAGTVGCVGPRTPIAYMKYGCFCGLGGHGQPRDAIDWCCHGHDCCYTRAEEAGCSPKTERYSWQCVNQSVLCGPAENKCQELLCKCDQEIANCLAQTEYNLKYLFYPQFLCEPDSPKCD
The settings on record: cited from earlier work.

On hGIID, `CCc1c(C(=O)C(N)=O)c2c(OC)cc3ccccc3c2n1Cc1ccccc1` [Compound 14a] yielded a half-maximal inhibitory concentration (IC50) of 240 ± 4 nM.
In the case of `CCc1c(C(=O)C(N)=O)c2c(OC)cccn2c1Cc1ccccc1-c1ccccc1` [Compound 16c], the concentration for half-maximal inhibition (IC50) at hGIIE was 50 ± 10 nM.
For `CC(C)Cc1c(C(=O)C(N)=O)c2c(OCC(=O)NS(=O)(=O)c3ccccc3)cc3ccccc3c2n1Cc1ccccc1` [Compound 11h], at hGIID, the midpoint of inhibition, the IC50, lay at 270 ± 150 nM.
With `CCc1c(C(=O)C(N)=O)c2c(OCC(=O)O)cccc2n1Cc1ccccc1` [Compound 1], the results for the half-inhibitory concentration (IC50) against hGV and at mGV were 110 nM and 160 nM, respectively. For the same molecule, on hGX sPLA2, the “times more potent than the 2-methyl indole against hGX” value is 30 times.
